From patent US11932654B2, “Nimbolide analogs as anti-cancer agents and preparation thereof” (priority 2018, dated 2024)

How the values were obtained:
p21 = assay: Western blotting analysis on Panc-1 cell line, p21; assay type: cell-based; details: panc-1 cells, various concentrations, 24 h, Western blot
Description: (§1) Western blotting analysis of IM-1372-Kn-13 on Panc-1 cell line: The cells were lysed in RIPA buffer (50 mM-tris (PH-7.4), 150 Min-Nacl, 1%-NP-40, 0.1%-SDS, 0.5%-Sodium-deoxycholate, 1 mM EDTA, 5 mM NaF, 5 mM Na—O-vandate, 1 mM PMSF, Protease inhibitor cocktail. The lysates were cleared by centrifugation at […] and concentration of protein was estimated by bradford assay. For Western blot analysis, equivalent amount of protein was resolved in SDS-PAGE and then transferred to polyvinylidene difluoride ([…]) membrane. Ti avoid non specific binding of antibodies, the membranes were blocked using 3% BSA in TBS with 0.5% Tween (TBST) for 1 h at room temperature. The membranes were then incubated in primary antibody overnight at 4° C. After removing excess primary antibody bound to membranes, blots were incubated with secondary anti body. Then the signal emitted was captured using chemiluminescence substrate.

NIH3T3 cells = assay: In vitro anticancer activity, SRB assay, NIH3T3; assay type: cell-based
Description: (§2) In vitro anticancer activity: Cells were harvested from exponential phase cultures by trypsinization, counted and plated in 96-well plate. Optimal seeding densities for different cell lines in each plate were 5000 cells per well. After 24 h cells were treated with \ the newly synthesized compound at a dose range of 0.1-100 μm final concentration. Thereafter, cells were allowed to grow for 48 h before determination of cell survival by the SRB assay. Then the cells were fixed with 10% cold trichloroacetic acid for 1 h at 4° C. After two washes with deionized water, fixed cells were stained with 50 μL of SRB solution (1% in acetic acid) for 30 min and subsequently washed twice with 1% acetic acid to remove unbound stain. The plates were left to dry at room temperature and bound stain was solubilized with 100 μL of 10 mM buffered Tris base for reading the […] at 540 nm.

[1] = system: DU-145 prostate cancer cell line; assay: In vitro anticancer activity, SRB assay, DU-145; assay type: cell-based; details: Homo sapiens, 48 h, NA = Not Active
Description: (§3) Cell culture: Human lung adenocarcinoma cell line (A549 cell line), pancreatic cancer cell line (Panc-1, Pan-02), prostate cancer cell line (DU145, PC3), Brest cancer cell line (MCF-7) was grown in DIEM (Dulbecco's modifications of eagle's medium with L-glutamine & 4.5 g/L glucose) supplemented with fetal bovine serum in a humidified atmosphere of a 5% CO2 at 37° C.
as §2

caspase-3 = assay: Caspase assay activity, caspase-3, Panc-1 cells; assay type: cell-based; details: fluorimetric assay, increasing concentrations
Description: Caspase assay activity: Caspase-3, caspase-8 and caspase-9 protease activities were determined using a commercial fluorescence assay kit according to the manufacturer's instructions, Briefly, pancreatic cancer cells were treated with different concentrations of IM-1372-Kn-13 for 24 h were re-suspended in 50 μL of chilled cell lysis buffer; cells were then incubated on ice for 10 min and centrifuged for 1 min in a micro-centrifuge (10,000 g). Then supernatants were transferred (cytosolic extract) to a fresh tube and protein concentration was assayed. Next, diluted 100 μg protein was added to 50 μL cell lysis buffer for each assay. Subsequently, 50 μL of 2× reaction buffer and 5 μL of the 4 mM Ac-DEVD AMC (caspase-3)/Ac-VETD-AMC (caspase-8)/[…] were added and incubated at 37° C. for 2 h (samples read at […] in a microtiter plate reader).

[2] = Acute toxicity test with histopathology
Description: Acute toxicity test: Safety tests begin with acute toxicity testing, where the animals are given a single dose of the test compound. The aim of the tests is to determine the range between the dose that causes no adverse effect and the dose that is life-threatening. […] Different doses (50, 25, 10, and 5 mg/kg body weight) of the test compound are given to the animals separately through IP injection. Post injection, the animals were monitored for the first 4 h and observed at every hourly interval for next 24 h. Further, animals were observed everyday for 14 days for any signs of toxic effects and behavior of animals. On day 14 all the surviving animals are sacrificed by a humane method and dissected to investigate signs of toxicity internally. […] If the drug is intended for the treatment of life-threatening diseases, toxicity is less of a concern than in a drug intended for use in healthy individuals.
Histopathological examination: For pathological studies, 5 μm sections of formalin-fixed, paraffin-embedded tissue were prepared and stained with haematoxylin and eosin. After haematoxylin-eosin (HE) staining, the slides were observed and the images were taken using optical microscope (Axioplan-II imaging). All slides were reviewed in a blinded fashion by a single pathologist and assessed for the presence of necrotic lesions (nodules) in the tumors and organs of different groups of mice.

[3] = Biochemical analysis in acute toxicity studies; assay type: in vivo, mice
Description: Biochemical analysis: In acute toxicity experiment, blood samples were collected from all the animals 1 week after the last dose and mice were sacrificed by cervical decapitation. The obtained serum was analyzed in clinical chemistry for the assessment of liver function tests (LFT), activity of serum alkaline phosphatase (ALP), alanine aminotransferase (ALT), aspartate aminotransferase (AST), kidney function tests (RFT) (serum urea and creatinine). The same tests were performed for serum samples collected from three groups of tumor xenograft mice used for determining in vivo activity of test compound against pancreatic cancer. The measurement of these biochemical parameters was done in Clinical Biochemical analyzer (Tulip coralab 3000™).

[4] = system: Pan-02 pancreatic cancer cell line; assay: In vitro anticancer activity, SRB assay, Pan-02; assay type: cell-based; details: Pan02, 48 h
Description: as §3, §2

p53 = assay: Western blotting analysis on Panc-1 cell line, p53; assay type: cell-based; details: panc-1 cells, various concentrations, 24 h, Western blot
Description: as §1

[5] = single IP dose 5 mg/kg body weight
[6] = single IP dose 10 mg/kg body weight
[7] = single IP dose 25 mg/kg body weight
[8] = single IP dose 50 mg/kg body weight

In the case of COC(=O)C[C@H]1[C@]2(C)C3=C(C)[C@H](C4=CC5OC4C(C(=O)OC)=C5C(=O)OC)C[C@@H]3O[C@@H]2[C@@H]2OC(=O)[C@]3(C)C=CC(=O)[C@@]1(C)C23 (stereo partly shown) [A4], the “expression of p21 protein” value (p21) is reported as “reduced”, the cytotoxic activity (NIH3T3 cells) is reported as “no activity was observed” and the IC50 [1] is reported as 580 nM. The “activity of caspase-3” value (caspase-3) was “increased significantly in a dose-dependent manner”, the organ histopathology ([2]; 25 mg/kg body weight) was “all organs including liver, kidney and spleen appeared normal” and the survival ([2]; 25 mg/kg, 10 mg/kg and 5 mg/kg) was “survived beyond the 24 h of observation”. For the same compound, the kidney histopathology ([2]; 50 mg/kg body weight) was “moderate capsular thickening and fibrosis in the renal capsules”, the liver histopathology ([2]; 50 mg/kg body weight) was “minor inflammation in the liver” and the adverse gastrointestinal effects ([2]; all the mice used in the experiment) was “no adverse gastrointestinal effects were observed”. For the same compound, the mortality ([2]; one mouse that received 50 mg/kg) was “died within 24 h”, the “toxic effects in acute toxicity studies” value ([2]; up to 50 mg/kg) was “failed to show any toxic effects” and the ALT [3, 5] was 48 U/L. The AST [3, 5] was 63 U/L, the BUN [3, 5] was 18 mg/dL and the Cholesterol [3, 5] was 175 mg/dL. For the same compound, the Creatinine [3, 5] was 0.4 mg/dL, the Glucose [3, 5] was 101 mg/dL and the ALT [3, 6] was 66 U/L. It also gave an AST [3, 6] of 66 U/L, a BUN [3, 6] of 21 mg/dL and a Cholesterol [3, 6] of 175 mg/dL. The Creatinine [3, 6] was 0.4 mg/dL, the Glucose [3, 6] was 100 mg/dL and the ALT [3, 7] was 67 U/L. It also gave an AST [3, 7] of 74.5 U/L, a BUN [3, 7] of 24.5 mg/dL and a Cholesterol [3, 7] of 163.5 mg/dL. The Creatinine [3, 7] was 0.35 mg/dL, the Glucose [3, 7] was 96 mg/dL and the ALT [3, 8] was 95 U/L. The AST [3, 8] was 128 U/L, the BUN [3, 8] was 29 mg/dL and the Cholesterol [3, 8] was 178 mg/dL. It also gave a Creatinine [3, 8] of 0.9 mg/dL, a Glucose [3, 8] of 102 mg/dL and an IC50 [4] of 520 nM. The “expression of p53 protein” value (p53) was “reduced”.
